In PubChem BioAssay (NCI) one finds GI50 and TGI data, which are given here for eight compounds.

Test systems include A498 renal; BT-549 breast; DU-145 prostate; HOP-92 NSCLC; MALME-3M melanoma; NCI-H226 lung; NCI-H23 lung; SK-MEL-2 melanoma; SR leukemia; U251 CNS.
What all share (assay): DTP human tumour cell line panel, 48 h

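Step 1: Grow cells in 96-well plates. Step 2: Expose to compound for 48 hours at 5 concentrations. Step 3: Interpolate endpoints linearly; if unreached, use highest concentration. Here, GI50 denotes the concentration required for 50% inhibition of growth. TGI is the concentration that stops growth completely.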

Regarding `CNCCOC(=O)/C=C1\CC[C@H]2[C@@H]([C@@H](O)C(=O)[C@@H]3[C@]2(C)CC[C@H](O)[C@]3(C)C(=O)OC)[C@H]1C`, the GI50 with A498 renal was 0.262 µM; with BT-549 breast, 0.286 µM; with DU-145 prostate, 0.188 µM; in the assay with HOP-92 NSCLC, 0.527 µM; with MALME-3M melanoma, 0.324 µM; in the assay on NCI-H226 lung, 0.566 µM. The GI50 in the assay on NCI-H23 lung is 0.245 µM; with SK-MEL-2 melanoma, 1.79 µM; in the assay with SR leukemia, 0.244 µM; with U251 CNS, 0.324 µM. Also, the TGI stood at 2.53 µM with A498 renal; 1.09 µM with BT-549 breast; 0.371 µM in the assay with DU-145 prostate; 3.52 µM in the assay on HOP-92 NSCLC; 1.42 µM in the assay on MALME-3M melanoma; 1.99 µM with NCI-H226 lung. The TGI in the assay on NCI-H23 lung came out at 0.644 µM; in the assay with SK-MEL-2 melanoma, 4.57 µM; in the assay with SR leukemia it was 0.626 µM; with U251 CNS it was 1.17 µM.
With `N#Cc1nn(-c2cc(=O)[nH]c3ccc(Cl)cc23)c(N)c1C#N`, the GI50 with A498 renal was above 100 µM; with BT-549 breast it was above 100 µM; in the assay with DU-145 prostate, above 100 µM; in the assay with HOP-92 NSCLC, 10.2 µM; in the assay with MALME-3M melanoma it was above 100 µM; with NCI-H226 lung, above 100 µM. Also, the GI50 in the assay on NCI-H23 lung, in the assay on SK-MEL-2 melanoma, in the assay with SR leukemia and in the assay with U251 CNS was above 100 µM each time. Moreover, the TGI in the assay on A498 renal, in the assay on BT-549 breast, in the assay on DU-145 prostate, with HOP-92 NSCLC, with MALME-3M melanoma and in the assay on NCI-H226 lung was above 100 µM in each case. Besides, the TGI in the assay with NCI-H23 lung, with SK-MEL-2 melanoma, in the assay on SR leukemia and in the assay on U251 CNS was above 100 µM in each case.
In the case of `CCC[CH2][Sn]([CH2]CCC)([O]C(=O)c1ccc(OC)c(OC)c1OC)[O][Sn]([CH2]CCC)([CH2]CCC)[O]C(=O)c1ccc(OC)c(OC)c1OC`, the GI50 is 0.284 µM in the assay with A498 renal; 0.241 µM in the assay on BT-549 breast; 1.01 µM in the assay on DU-145 prostate; 0.159 µM with HOP-92 NSCLC; 0.168 µM in the assay with MALME-3M melanoma; 0.33 µM in the assay with NCI-H226 lung. The GI50 is 0.142 µM with NCI-H23 lung, 0.16 µM with SK-MEL-2 melanoma, 0.315 µM with SR leukemia and 0.274 µM with U251 CNS. The TGI is 1.25 µM in the assay on A498 renal; 1.15 µM in the assay with BT-549 breast; 2.17 µM in the assay on DU-145 prostate; 0.554 µM with HOP-92 NSCLC; 0.757 µM in the assay with MALME-3M melanoma; 0.89 µM with NCI-H226 lung. The TGI is 0.535 µM in the assay on NCI-H23 lung, 0.48 µM in the assay on SK-MEL-2 melanoma, above 100 µM in the assay with SR leukemia and 1.1 µM in the assay on U251 CNS.
Turning to `CCOC(=O)Nc1cc2c(c(N)n1)N=C(c1ccccc1)CO2`, the GI50 was 0.147 µM in the assay on A498 renal; 23.1 µM in the assay on BT-549 breast; 0.194 µM in the assay with DU-145 prostate; 7.13 µM in the assay on HOP-92 NSCLC; 5.11 µM in the assay on MALME-3M melanoma; 4.16 µM in the assay with NCI-H226 lung. The GI50 with NCI-H23 lung is 0.569 µM; with SK-MEL-2 melanoma, 41.7 µM; with SR leukemia, 0.035 µM; with U251 CNS, 0.183 µM. For the same compound, the TGI with A498 renal is 6.92 µM; in the assay on BT-549 breast, above 100 µM; with DU-145 prostate, 1.44 µM; in the assay with HOP-92 NSCLC, 29.1 µM; in the assay on MALME-3M melanoma, 36.2 µM; in the assay with NCI-H226 lung, 41.4 µM. Further, the TGI is 21.4 µM in the assay on NCI-H23 lung, above 100 µM in the assay with SK-MEL-2 melanoma, 10.1 µM with SR leukemia and 14.3 µM in the assay on U251 CNS.
For `O=c1c(F)cn(Cc2ccc(C34CC5CC(CC(C5)C3)C4)c(O)c2)c(=O)n1Cc1ccc(C23CC4CC(CC(C4)C2)C3)c(O)c1`, the GI50 in the assay with A498 renal is 14.2 µM; with BT-549 breast, 13.1 µM; with DU-145 prostate, 8.59 µM; in the assay on HOP-92 NSCLC, 12.4 µM; in the assay on MALME-3M melanoma, 14.8 µM; in the assay with NCI-H226 lung, 12.9 µM. Besides, the GI50 is 15.6 µM with NCI-H23 lung, 18.8 µM with SK-MEL-2 melanoma, 7.17 µM with SR leukemia and 6.89 µM with U251 CNS. Also, the TGI turned out to be 27.5 µM in the assay with A498 renal; 31.3 µM in the assay with BT-549 breast; 22.9 µM in the assay with DU-145 prostate; 28.7 µM with HOP-92 NSCLC; 29.2 µM in the assay with MALME-3M melanoma; 26.1 µM in the assay on NCI-H226 lung. Further, the TGI in the assay on NCI-H23 lung worked out at 32 µM; in the assay with SK-MEL-2 melanoma, 41.8 µM; with SR leukemia, 26.5 µM; in the assay on U251 CNS, 19.5 µM.
For `Cc1c(N(C)C)ccc2c(=O)c3cccc(CC(=O)O)c3oc12`, the TGI in the assay with A498 renal, with BT-549 breast, with DU-145 prostate, in the assay with HOP-92 NSCLC, in the assay with MALME-3M melanoma and with NCI-H226 lung was above 100 µM throughout. Further, the TGI in the assay on NCI-H23 lung, in the assay with SK-MEL-2 melanoma, in the assay with SR leukemia and in the assay on U251 CNS was above 100 µM each time.
For `CN(C)CC[C@H](CSc1ccccc1)Nc1ccc(S(=O)(=O)NC(=O)c2ccc(N3CCN(Cc4ccccc4-c4ccc(Cl)cc4)CC3)cc2)cc1[N+](=O)[O-]`, the GI50 with A498 renal is 0.0971 µM; with BT-549 breast, 17.3 µM; in the assay on DU-145 prostate, 23 µM; in the assay on HOP-92 NSCLC it was 0.186 µM; in the assay on MALME-3M melanoma, 3.11 µM; with NCI-H226 lung, 4.59 µM. The GI50 is 9.07 µM in the assay with NCI-H23 lung, 1.88 µM in the assay on SK-MEL-2 melanoma, 3.85 µM in the assay on SR leukemia and 3.9 µM with U251 CNS. For the same compound, the TGI in the assay with A498 renal is 0.818 µM; in the assay on BT-549 breast, above 100 µM; in the assay on DU-145 prostate, above 100 µM; in the assay on HOP-92 NSCLC, 0.833 µM; in the assay with MALME-3M melanoma it was 36.3 µM; in the assay with NCI-H226 lung it was 17.4 µM. The TGI with NCI-H23 lung is above 100 µM; with SK-MEL-2 melanoma, 4.94 µM; with SR leukemia, 40.2 µM; in the assay on U251 CNS, 17.4 µM.
Consider `Clc1cc2c(c(CSc3nc4ccccc4n4cccc34)c1)OCOC2`, for which the GI50 in the assay with A498 renal is 22.6 µM; with BT-549 breast it was 78.1 µM; in the assay with DU-145 prostate, above 100 µM; in the assay on HOP-92 NSCLC it was 5.36 µM; in the assay with MALME-3M melanoma it was 29.6 µM; in the assay with NCI-H226 lung, 14.3 µM. In addition, the GI50 with NCI-H23 lung was 26.3 µM; in the assay with SK-MEL-2 melanoma, 13.6 µM; with SR leukemia, above 100 µM; with U251 CNS, 17.1 µM. Also, the TGI in the assay with A498 renal is above 100 µM; in the assay with BT-549 breast, above 100 µM; in the assay with DU-145 prostate, above 100 µM; in the assay with HOP-92 NSCLC it was 35.5 µM; in the assay on MALME-3M melanoma, above 100 µM; in the assay with NCI-H226 lung, above 100 µM. The TGI in the assay with NCI-H23 lung was above 100 µM; in the assay on SK-MEL-2 melanoma, 44.9 µM; in the assay with SR leukemia it was above 100 µM; in the assay on U251 CNS, above 100 µM.
